From patent US20260248820A1, “USES OF HYDROGENATED CANNABIDIOL (H4CBD) AND ADVANCED METABOLIC SYNDROME” (The Regents of the University of California, priority 2022, published 2026)
“Also recorded” adds a separate entry of the source.

How the values were obtained:
[1] = tested on: Otsuka Long-Evans Tokushima Fatty (OLETF) rat; assay: End of study fasting blood/plasma measurements (glucose, hormones, lipids, RAAS peptides); type: in vivo; parameters: Plasma AngII higher than OLETF control / Plasma Ang 1-7 higher than OLETF control / Plasma aldosterone higher than OLETF control / Reduction of fasting insulin to glucagon ratio compared to OLETF / Reduction of circulating adiponectin compared to OLETF / Reduction of leptin compared to OLETF: concentration or dose not given beside the values
From the text: (§1) Tissue Collection—After the 4-week study and 3 days following the OGTT, animals were fasted overnight and tissues were collected the following morning.
Statistics—All values are represented as mean #standard error mean (SEM) unless otherwise indicated. Means were compared by one-way ANOVA followed by Tukey's honest significant difference or unpaired, one-tailed t-test to assess significant differences among groups. Means and regressions were considered significant at p<0.05. Outliers were detected by ROUT (Q=1.0%) and removed; however, it should be noted that this was necessary for only 12 occurrences. All statistical procedures, including Pearson r correlations, were performed using GraphPad Prism 9.3.1 (GraphPad Software, Inc., San Diego, CA, USA).
(§2) Tissue Collection—After the 4-week study period, animals were fasted overnight, and tissues were collected at sacrifice the following morning. BM was recorded before animals were decapitated and trunk blood was collected.
Plasma Analysis—Plasma concentrations of adiponectin (Millipore Sigma; EZRADP-62K), aldosterone (R&D Systems; KGE016), angiotensin 1-7 (Phoenix Pharmaceuticals; EKE-002-01), angiotensin II (Phoenix Pharmaceuticals; EK-002-12CE), corticosterone (R&D Systems; KGE009), ghrelin (Sigma Aldrich; RAB0207), glucagon (Crystal Chemicals; 81519), leptin (Millipore Sigma; EZRL-83K), non-esterified fatty acid (NEFA) (Wako Chemicals) and triglycerides (Cayman Chemical; 10010303) were measured in fasted, end of study plasma samples. All samples were analyzed in duplicate and run in a single assay with intra-assay and percent CV of <10% for all assays.

[2] = tested on: Otsuka Long-Evans Tokushima Fatty (OLETF) rat; assay: Morphometrical measurements (body mass, abdominal fat, food and water intake, activity) in advanced MetS rats; type: in vivo
From the text: Animals—The Otsuka Long-Evans Tokushima Fatty (OLETF) rat is a monogenic model of diet-induced obesity accelerated by a mutation in the CCK receptor. […] At >40 weeks of age, OLETF rats suffer from severe metabolic dysfunction and therefore serve as a model of aged, severe MetS.
(§3) Male lean Long Evan's Tokushima Otsuka (LETO) rats and obese Otsuka Long Evans Tokushima Fatty (OLETF) rats (Japan SLC Inc., Hamamatsu, Japan), both 14 weeks of age were assigned to the following groups (n=8/group): (1) vehicle-dosed LETO (LETO), (2) vehicle-dosed OLETF (OLETF), and (3) H4CBD-treated (200 mg/kg/day×4 weeks) OLETF (H4CBD). Rats were maintained in a specific pathogen-free, climate-controlled facility on a 12-hour light: dark cycle (07:00-19:00 and 19:00-07:00, respectively). All animals had free access to water and were fed rat chow (Teklad Global; fat 9.0%; carbohydrate 44.9%; protein 19.0%) ad libitum. Treatment intervention was initiated at 41 weeks of age. Phenotypic data (i.e. body mass, food intake) was collected daily for all animals.
Purified H4CBD (>99%) was suspended in food grade sesame oil and administered by oral gavage at a dose of 200 mg/kg.
as §1
as §3, with “Animals—Male” for “Male”, “facility at the University of California, Merced” for “facility”, “age.” for “age. Phenotypic data (i.e. body mass, food intake) was collected daily for all animals.”
Body Mass (BM), Water, and Food Intake—BM was measured daily to calculate the appropriate drug and vehicle dose. Water, urine and food were measured once every 24 hours throughout the study.
Telemeter Implantation—At 16 weeks, OLETF rats (n=5) were implanted with DSI telemeters (HD-S10) in the abdominal cavity to measure systolic blood pressure. […] Activity was measured every hour for 15 minutes for the duration of the study. Data were analyzed using A.R.T. software (DSI, St. Paul, MN).
Drug Preparation and Administration—Purified H4CBD (>99%) was suspended in sesame oil and administered by oral gavage at a dose of 200 mg/kg.
as §2

Collagen Type IV = assay: Liver Type IV collagen deposition (liver damage); type: in vivo, rat; conditions: collagen 71% higher in OLETF than LETO
From the text: Type IV collagen deposition is an indicator of liver fibrosis, which is useful in the diagnosis of NAFLD in elderly individuals and models of NAFLD like OLETF.

[3] = Drug bioavailability detection in heparinized plasma (HPLC, MS/MS); type: in vivo, rat; conditions: peak area count <1500 considered negative, 200 mg/kg oral gavage
Protocol: Drug Bioavailability Detection—H4CBD bioavailability in heparinized plasma was determined via HPLC and MS/MS. In brief, 100 μL heparinized rat plasma was diluted with 100 μL Mass Spec Gold human serum (Golden West Diagnostics, MSG3200). The samples were analyzed using a WATERS TQS-Micro. The first quadrupole was set to 319.16 m/z and the third quadrupole isolated fragments of 181.02 m/z.
Drug Bioavailability Detection—H4CBD bioavailability in heparinized plasma was determined via HPLC and MS chromatography.

[4] = H4CBD-treated OLETF rats, end of study fasting, mean ± SEM
[5] = H4CBD-treated OLETF rats, end of study, mean ± SEM
[6] = OLETF rats, 200 mg/kg oral, 4 weeks, p<0.05
[7] = average between day 10 and day 30
[8] = by day 13 through the end of the study

CCCCCc1cc(O)c(C2CC(C)CCC2C(C)C)c(O)c1 (centres unmarked) [H4CBD, 2-(2-isopropyl-5-methylcyclohexyl)-5-pentylbenzene-1,3-diol]
Fasting blood glucose higher than LETO ([1]; 45 weeks of age, p<0.0001): 2.2 fold
Fasting blood glucose higher than OLETF ([1]; 45 weeks of age, p<0.01): 56%
Glucose:Insulin (mmol/μIU × 10^4) [1, 4]: 10.9 ± 1.1^ mmol/μIU × 10^4
Insulin:Glucagon (μIU/pg) [1, 4]: 0.6 ± 0.0^ μIU/pg
Fasting glucagon [1, 5]: 19.4 ± 9.4 pg/mL
Fasting insulin (μIU/mL) [1, 5]: 13.9 ± 0.4^# μIU/mL
Fasting blood glucose (mmol/L) ([1]; H4CBD-treated OLETF rats, end of study, mean ± SEM, n = 8): 15.8 ± 1.9^†£ mmol/L
Fasted plasma NEFA ([1]; LETO, OLETF, H4CBD): not different among groups
Increase of fasting plasma insulin over OLETF ([1]; end of study): 10%
Plasma glucagon, OLETF versus H4CBD ([1]; end of study fasting): not different
Plasma Ang 1-7 higher than OLETF control ([1]; end of study plasma): 26%
Plasma AngII higher than OLETF control ([1]; end of study plasma): 24%
Plasma aldosterone higher than OLETF control ([1]; end of study plasma, p=0.052): 150%
Plasma corticosterone ([1]; fasting plasma, LETO, OLETF, H4CBD): comparable amongst the groups
Plasma ghrelin greater than the other groups ([1]; fasting plasma, p<0.01 vs OLETF, p<0.05 vs LETO): 75%
Reduction of circulating adiponectin compared to OLETF ([1]; fasting plasma, p<0.05): 40%
Reduction of leptin compared to OLETF ([1]; fasting plasma, p<0.05): 47%
Leptin:adiponectin ratio ([1]; fasting plasma, ratio 30% lower in OLETF than LETO): did not modulate the ratio further
Fasted plasma TG ([1]; p<0.0001 OLETF vs. H4CBD, TG 147% higher in OLETF than LETO): reduced fasted plasma TG to LETO control levels
Increase of fasting glucose to insulin ratio compared to OLETF ([1]; p<0.05): 47%
Reduction of fasting insulin to glucagon ratio compared to OLETF ([1]; p<0.05): 64%
Activity score relative to OLETF control ([2]; DSI HD-S10 telemeter, H4CBD n=3, OLETF n=2, p=0.0985, not significant): nearly doubled
Body mass (g) ([2]; H4CBD-treated OLETF rats, 200 mg/kg oral gavage, 4 weeks, mean ± SEM, n = 8): 516 ± 21^^# g
Final, absolute food intake ([2]; H4CBD-treated OLETF rats, 200 mg/kg oral, 4 weeks, average of 3 days, mean ± SEM): 36 ± 2 g
Relative total fat (g/100 g BM) ([2]; H4CBD-treated OLETF rats, 200 mg/kg oral, 4 weeks, epi.+retro., mean ± SEM): 7.8 ± 1.1 g/100 g BM
Relative epi. fat (g/100 g BM) ([2]; H4CBD-treated OLETF rats, 200 mg/kg oral, 4 weeks, epidydimal, mean ± SEM): 1.2 ± 0.1^^# g/100 g BM
Relative final food intake (g/100 g BM) ([2]; H4CBD-treated OLETF rats, 200 mg/kg oral, 4 weeks, mean ± SEM): 6.7 ± 0.4 g/100 g BM
Relative retro. fat (g/100 g BM) ([2]; H4CBD-treated OLETF rats, 200 mg/kg oral, 4 weeks, retroperitoneal, mean ± SEM): 6.6 ± 0.9 g/100 g BM
Initial, absolute food inake ([2]; H4CBD-treated OLETF rats, average of 3 days, mean ± SEM): 34 ± 2 g
Reduction of relative combined (total) adipose compared to OLETF ([2]; OLETF rats, 200 mg/kg oral, 4 weeks): 25%
Change in food consumption compared to OLETF ([2]; OLETF rats, 200 mg/kg oral, 4 weeks (Table 1)): not associated with a change in food consumption
Effect on body mass (BM) ([2]; OLETF rats, 200 mg/kg oral, 4 weeks, compared with vehicle LETO, 200 mg/kg): reduced BM in OLETF to LETO levels within the first week; also recorded: reduced BM to vehicle-treated LETO levels
Reduction of relative epidydimal fat compared to OLETF control [2, 6]: 35%
Reduction of relative retroperitoneal fat compared to OLETF control [2, 6]: 24%
BM of vehicle-treated OLETF higher than H4CBD-treated OLETF ([2]; OLETF rats, 200 mg/kg oral, after first week (day 10-30), p<0.05): 15%
Increased relative food consumption compared to OLETF control [2, 7]: 24%
Increased relative food intake consumption compared to LETO [2, 7]: 74%
Water intake higher than LETO [2, 8]: > 600%
Water intake higher than OLETF control [2, 8]: 90%
Liver collagen (Type IV) deposition (Collagen Type IV): no effect on collagen levels
H4CBD in end of study plasma [3]: only treated animals received drug; also recorded: only detected in plasma from treated rats
